Activity calls are given as the source filed them.
Tests used:
[1] = biological target: T1, Polyadenylate-binding protein 1 (Homo sapiens, UniProt P11940); test: PABP1 MLLE–PAM2 interaction inhibitors, dose response, miRNA deadenylation inhibitor project, biochemical, fluorescence polarization, Cy5-PAM2 peptide, secondary (AID 602260); type: functional; details: read-out: IC50_Mean
Large T antigen = Large T antigen (Simian virus 40, UniProt P03070); type: functional, Betapolyomavirus macacae;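 note: Confirmatory-stage PubChem screen for compounds that inhibit SV40 T antigen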
Chain of Large T antigen (P03070 whole entry): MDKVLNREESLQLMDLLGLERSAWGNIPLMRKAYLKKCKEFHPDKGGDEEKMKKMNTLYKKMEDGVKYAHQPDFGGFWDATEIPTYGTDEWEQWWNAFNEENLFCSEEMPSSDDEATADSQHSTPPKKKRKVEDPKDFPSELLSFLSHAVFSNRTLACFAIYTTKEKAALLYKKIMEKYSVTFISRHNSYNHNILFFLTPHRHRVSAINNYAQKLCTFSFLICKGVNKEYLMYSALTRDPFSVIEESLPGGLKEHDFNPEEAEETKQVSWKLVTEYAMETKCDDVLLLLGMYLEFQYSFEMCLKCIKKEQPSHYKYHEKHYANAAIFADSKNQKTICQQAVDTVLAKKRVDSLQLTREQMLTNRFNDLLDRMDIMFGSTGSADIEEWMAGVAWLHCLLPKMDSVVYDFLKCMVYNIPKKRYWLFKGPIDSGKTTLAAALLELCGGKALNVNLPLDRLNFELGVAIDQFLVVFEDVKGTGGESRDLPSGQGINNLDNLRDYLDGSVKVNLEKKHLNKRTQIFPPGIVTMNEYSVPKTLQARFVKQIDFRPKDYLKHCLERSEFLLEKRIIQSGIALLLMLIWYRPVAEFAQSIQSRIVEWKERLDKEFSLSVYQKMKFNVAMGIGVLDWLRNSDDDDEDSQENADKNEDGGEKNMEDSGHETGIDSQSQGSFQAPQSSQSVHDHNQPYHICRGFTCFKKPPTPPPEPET

[2] = biological target: T1, Polyadenylate-binding protein 1; test: PABP1 MLLE–PAM2 binding inhibitor potency, dose response, biochemical, fluorescence polarization, FITC-PAM2 peptide (AID 602259); type: functional; details: read-out: IC50_Mean
[3] = biological target: T2, Mannose-6-phosphate isomerase (Homo sapiens, UniProt P34949); test: human PMI inhibitors, high substrate, primary screen, biochemical, fluorescence intensity, high mannose 6-phosphate (AID 1220)
T2 sequence (P34949 whole entry): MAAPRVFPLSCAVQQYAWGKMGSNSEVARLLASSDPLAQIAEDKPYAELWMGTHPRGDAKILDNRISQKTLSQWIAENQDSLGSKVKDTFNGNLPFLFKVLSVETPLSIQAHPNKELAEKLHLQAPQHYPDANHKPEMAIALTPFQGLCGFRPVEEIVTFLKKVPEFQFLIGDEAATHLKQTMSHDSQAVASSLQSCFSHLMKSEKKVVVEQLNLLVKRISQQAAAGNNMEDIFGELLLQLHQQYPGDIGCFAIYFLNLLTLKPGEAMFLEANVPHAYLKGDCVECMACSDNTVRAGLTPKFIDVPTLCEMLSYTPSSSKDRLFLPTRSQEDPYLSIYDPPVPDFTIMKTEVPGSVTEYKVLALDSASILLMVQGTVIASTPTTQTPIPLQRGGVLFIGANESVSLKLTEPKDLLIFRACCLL

[4] = biological target: T3, Rac GTPase-activating protein 1 (Homo sapiens, UniProt Q9H0H5); test: MgcRacGAP GTPase-activating activity inhibitors, confirmation, biochemical, ADP Hunter fluorescence, primary and confirmatory (AID 624330); type: functional
T3 sequence (Q9H0H5 whole entry): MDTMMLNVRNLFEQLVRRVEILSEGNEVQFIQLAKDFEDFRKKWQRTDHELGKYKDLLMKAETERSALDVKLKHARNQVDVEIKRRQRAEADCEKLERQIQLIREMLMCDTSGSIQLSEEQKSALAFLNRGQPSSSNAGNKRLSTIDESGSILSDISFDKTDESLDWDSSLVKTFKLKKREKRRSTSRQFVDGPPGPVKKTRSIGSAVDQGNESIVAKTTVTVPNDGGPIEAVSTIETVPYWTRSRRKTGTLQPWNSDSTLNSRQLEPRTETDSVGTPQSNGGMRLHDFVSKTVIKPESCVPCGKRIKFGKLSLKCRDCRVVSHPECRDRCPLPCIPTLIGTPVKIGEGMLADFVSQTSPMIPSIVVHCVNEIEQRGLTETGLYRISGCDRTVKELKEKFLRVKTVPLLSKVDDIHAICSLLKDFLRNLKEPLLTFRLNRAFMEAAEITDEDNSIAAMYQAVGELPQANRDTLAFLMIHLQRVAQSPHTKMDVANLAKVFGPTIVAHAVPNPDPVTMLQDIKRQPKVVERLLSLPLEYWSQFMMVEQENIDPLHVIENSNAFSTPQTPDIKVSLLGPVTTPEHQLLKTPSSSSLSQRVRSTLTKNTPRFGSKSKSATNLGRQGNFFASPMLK

[5] = biological target: T2, Mannose-6-phosphate isomerase; test: inhibitors of human PMI, primary screen, biochemical, fluorescence intensity, coupled assay (AID 1209)
[6] = biological target: Induced myeloid leukemia cell differentiation protein Mcl-1 (Homo sapiens, UniProt Q07820); type: functional
Chain of Induced myeloid leukemia cell differentiation protein Mcl-1 (Q07820 whole entry): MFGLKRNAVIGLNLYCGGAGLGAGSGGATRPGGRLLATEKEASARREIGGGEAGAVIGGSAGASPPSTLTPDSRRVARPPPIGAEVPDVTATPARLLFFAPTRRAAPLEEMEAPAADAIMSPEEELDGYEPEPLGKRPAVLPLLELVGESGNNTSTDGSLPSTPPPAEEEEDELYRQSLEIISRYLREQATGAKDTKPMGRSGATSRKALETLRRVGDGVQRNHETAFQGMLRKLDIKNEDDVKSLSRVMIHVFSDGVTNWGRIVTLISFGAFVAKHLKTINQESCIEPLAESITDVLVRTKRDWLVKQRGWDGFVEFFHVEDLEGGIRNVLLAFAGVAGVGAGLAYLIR

[7] = biological target: Glyceraldehyde-3-phosphate dehydrogenase (Homo sapiens, UniProt P04406)
Chain of Glyceraldehyde-3-phosphate dehydrogenase (P04406 whole entry): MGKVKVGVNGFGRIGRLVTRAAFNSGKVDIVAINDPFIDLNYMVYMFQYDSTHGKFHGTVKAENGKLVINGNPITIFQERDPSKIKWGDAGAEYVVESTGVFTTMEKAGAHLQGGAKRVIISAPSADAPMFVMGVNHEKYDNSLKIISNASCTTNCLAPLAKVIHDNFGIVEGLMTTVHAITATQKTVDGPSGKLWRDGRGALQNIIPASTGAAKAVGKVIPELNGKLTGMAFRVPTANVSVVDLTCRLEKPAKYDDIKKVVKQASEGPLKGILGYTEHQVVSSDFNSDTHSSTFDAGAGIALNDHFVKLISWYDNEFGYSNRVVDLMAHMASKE

Aminopeptidase N = biological target: T4, Aminopeptidase N (Plasmodium falciparum FcB1/Columbia, UniProt O96935); test: P. falciparum M1AAP inhibitors, biochemical, fluorogenic H-Leu-NHMec substrate, 1536-well (AID 1445); parameters: species or system Plasmodium falciparum 3D7, 3D7
T4 sequence (O96935 whole entry): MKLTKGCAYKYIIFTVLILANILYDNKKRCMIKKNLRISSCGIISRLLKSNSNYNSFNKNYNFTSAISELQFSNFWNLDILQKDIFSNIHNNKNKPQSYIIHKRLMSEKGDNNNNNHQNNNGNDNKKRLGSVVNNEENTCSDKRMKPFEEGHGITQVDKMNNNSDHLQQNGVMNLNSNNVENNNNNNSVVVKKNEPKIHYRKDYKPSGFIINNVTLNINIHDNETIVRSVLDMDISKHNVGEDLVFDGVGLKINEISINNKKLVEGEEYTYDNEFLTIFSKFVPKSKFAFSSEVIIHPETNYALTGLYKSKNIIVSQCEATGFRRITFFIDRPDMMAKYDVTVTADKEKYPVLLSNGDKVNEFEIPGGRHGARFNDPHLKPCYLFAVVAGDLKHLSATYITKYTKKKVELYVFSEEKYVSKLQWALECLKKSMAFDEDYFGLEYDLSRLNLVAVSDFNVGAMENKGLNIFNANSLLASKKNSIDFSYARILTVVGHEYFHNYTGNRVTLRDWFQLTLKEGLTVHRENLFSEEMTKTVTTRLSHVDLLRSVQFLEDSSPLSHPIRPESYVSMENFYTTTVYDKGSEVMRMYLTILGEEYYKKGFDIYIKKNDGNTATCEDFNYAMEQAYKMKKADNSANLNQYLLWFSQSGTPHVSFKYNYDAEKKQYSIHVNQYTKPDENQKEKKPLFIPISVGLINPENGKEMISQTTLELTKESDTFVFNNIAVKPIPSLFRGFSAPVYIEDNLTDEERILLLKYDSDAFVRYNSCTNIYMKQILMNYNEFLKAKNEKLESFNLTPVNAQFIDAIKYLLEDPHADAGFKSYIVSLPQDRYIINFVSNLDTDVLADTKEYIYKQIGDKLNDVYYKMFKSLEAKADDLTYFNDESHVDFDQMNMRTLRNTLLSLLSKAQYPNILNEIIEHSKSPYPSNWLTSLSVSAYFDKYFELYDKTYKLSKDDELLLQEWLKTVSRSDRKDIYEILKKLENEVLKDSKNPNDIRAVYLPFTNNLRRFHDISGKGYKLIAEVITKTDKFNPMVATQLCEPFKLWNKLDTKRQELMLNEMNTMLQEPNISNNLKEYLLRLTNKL

[8] = biological target: T5, Replicative DNA helicase DnaB (Mycobacterium tuberculosis, UniProt P9WMR3); test: DnaB intein splicing inhibitors, dose response, biochemical, cell-free fluorescence (AID 449749); type: functional
T5 sequence (P9WMR3 whole entry): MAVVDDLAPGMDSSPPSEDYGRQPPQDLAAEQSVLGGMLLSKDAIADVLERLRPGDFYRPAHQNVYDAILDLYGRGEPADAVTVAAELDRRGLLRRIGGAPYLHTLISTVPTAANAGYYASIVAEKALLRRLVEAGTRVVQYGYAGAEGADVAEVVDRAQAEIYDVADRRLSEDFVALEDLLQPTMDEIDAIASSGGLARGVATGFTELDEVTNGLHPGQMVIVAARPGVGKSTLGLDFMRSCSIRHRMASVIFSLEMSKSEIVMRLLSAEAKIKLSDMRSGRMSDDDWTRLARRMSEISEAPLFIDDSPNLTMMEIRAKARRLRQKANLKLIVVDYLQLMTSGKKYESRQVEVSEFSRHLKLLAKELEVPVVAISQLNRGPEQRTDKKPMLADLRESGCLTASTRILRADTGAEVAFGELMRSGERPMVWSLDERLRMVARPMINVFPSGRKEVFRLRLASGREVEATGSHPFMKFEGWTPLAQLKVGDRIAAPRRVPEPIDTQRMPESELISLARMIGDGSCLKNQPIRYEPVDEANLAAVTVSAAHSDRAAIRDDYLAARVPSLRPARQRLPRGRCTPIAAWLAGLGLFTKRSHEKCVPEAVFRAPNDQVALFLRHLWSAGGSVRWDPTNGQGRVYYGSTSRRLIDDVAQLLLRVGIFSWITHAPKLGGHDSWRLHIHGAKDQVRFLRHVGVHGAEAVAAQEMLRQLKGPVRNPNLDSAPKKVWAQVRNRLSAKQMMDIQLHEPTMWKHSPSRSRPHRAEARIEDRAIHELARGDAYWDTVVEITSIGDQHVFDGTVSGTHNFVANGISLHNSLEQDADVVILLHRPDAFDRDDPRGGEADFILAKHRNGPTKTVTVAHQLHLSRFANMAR

Protein RecA = biological target: T6, Protein RecA (Mycobacterium tuberculosis, UniProt P9WHJ3); test: Fluorescence Cell-Free Homogeneous Dose Retest to Identify Inhibitors of RecA-Intein Splicing Activity. [Related pubchem assays (depositor defined):AID2097, AID2223, AID489010, AID492950]; type: functional
T6 sequence (P9WHJ3 whole entry): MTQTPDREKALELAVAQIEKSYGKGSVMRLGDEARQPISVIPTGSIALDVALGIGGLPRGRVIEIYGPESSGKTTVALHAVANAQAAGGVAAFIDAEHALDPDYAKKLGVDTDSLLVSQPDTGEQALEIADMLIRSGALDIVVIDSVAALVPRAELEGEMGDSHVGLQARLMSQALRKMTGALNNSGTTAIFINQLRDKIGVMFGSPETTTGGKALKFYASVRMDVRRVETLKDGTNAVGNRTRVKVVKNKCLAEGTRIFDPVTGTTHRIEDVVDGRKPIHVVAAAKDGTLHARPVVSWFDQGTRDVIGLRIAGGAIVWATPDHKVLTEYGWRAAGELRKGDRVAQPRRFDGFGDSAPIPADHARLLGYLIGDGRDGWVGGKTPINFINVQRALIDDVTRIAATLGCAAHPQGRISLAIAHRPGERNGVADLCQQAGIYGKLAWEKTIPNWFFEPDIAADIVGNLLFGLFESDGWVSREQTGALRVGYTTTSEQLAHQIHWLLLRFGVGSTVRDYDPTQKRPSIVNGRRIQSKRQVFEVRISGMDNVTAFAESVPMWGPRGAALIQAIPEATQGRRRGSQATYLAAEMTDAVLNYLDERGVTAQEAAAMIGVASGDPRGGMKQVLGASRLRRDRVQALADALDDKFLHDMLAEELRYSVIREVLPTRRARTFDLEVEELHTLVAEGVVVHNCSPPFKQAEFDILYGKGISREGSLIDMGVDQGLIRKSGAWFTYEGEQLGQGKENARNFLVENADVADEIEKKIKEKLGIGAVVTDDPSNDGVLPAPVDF

Streptococcus = test: Group A Streptococcus viability loss, dose response, counter-screen for streptokinase expression inhibitor project, luminescence, BacTiterGlo (AID 1915); type: functional, organism-based;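 note: potency for reduction of bacterial viability or growth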
[9] = test system: Streptococcus sp. 'group A'; test: growth inhibition of control SK(-) GAS strain, dose response, counter-screen for streptokinase expression inhibitor project, luminescence, kanamycin, BacTiterGlo, confirmation (AID 1900); type: functional, organism-based
[10] = biological target: T7, Short transient receptor potential channel 4 (Mus musculus, UniProt Q9QUQ5); test: mouse TRPC4 channel inhibitors, dose response, cell-based, HEK293 TRPC4/mu-opioid, Fluo-4 calcium (AID 434942); type: functional;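 note: potency of inhibitors blocking the TRPC4 calcium response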
T7 sequence (Q9QUQ5 whole entry): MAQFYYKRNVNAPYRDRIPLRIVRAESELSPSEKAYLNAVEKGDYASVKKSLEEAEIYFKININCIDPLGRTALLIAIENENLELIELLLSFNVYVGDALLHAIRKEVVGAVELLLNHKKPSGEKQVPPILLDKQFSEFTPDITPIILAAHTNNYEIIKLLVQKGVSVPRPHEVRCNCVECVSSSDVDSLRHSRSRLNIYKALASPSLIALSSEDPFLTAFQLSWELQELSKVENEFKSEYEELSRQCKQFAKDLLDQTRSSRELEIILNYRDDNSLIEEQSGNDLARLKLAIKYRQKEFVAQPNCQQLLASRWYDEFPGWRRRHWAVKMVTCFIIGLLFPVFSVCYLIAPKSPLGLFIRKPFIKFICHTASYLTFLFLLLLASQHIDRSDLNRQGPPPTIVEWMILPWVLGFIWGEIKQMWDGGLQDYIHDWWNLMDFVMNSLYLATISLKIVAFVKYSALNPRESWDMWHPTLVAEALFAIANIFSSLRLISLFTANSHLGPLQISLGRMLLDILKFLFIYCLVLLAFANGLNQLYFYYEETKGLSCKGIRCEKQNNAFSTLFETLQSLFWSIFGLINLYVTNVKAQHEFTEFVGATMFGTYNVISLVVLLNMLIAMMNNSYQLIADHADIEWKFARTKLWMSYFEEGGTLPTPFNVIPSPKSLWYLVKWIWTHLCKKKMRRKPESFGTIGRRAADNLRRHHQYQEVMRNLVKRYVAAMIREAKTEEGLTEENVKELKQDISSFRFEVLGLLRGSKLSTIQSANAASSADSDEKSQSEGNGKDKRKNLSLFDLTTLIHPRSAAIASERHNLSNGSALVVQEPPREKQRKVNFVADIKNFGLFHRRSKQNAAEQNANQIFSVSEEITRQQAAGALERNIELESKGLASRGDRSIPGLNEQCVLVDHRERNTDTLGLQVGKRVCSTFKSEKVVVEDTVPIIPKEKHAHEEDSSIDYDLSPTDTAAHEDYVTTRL

T1 sequence (P11940 whole entry): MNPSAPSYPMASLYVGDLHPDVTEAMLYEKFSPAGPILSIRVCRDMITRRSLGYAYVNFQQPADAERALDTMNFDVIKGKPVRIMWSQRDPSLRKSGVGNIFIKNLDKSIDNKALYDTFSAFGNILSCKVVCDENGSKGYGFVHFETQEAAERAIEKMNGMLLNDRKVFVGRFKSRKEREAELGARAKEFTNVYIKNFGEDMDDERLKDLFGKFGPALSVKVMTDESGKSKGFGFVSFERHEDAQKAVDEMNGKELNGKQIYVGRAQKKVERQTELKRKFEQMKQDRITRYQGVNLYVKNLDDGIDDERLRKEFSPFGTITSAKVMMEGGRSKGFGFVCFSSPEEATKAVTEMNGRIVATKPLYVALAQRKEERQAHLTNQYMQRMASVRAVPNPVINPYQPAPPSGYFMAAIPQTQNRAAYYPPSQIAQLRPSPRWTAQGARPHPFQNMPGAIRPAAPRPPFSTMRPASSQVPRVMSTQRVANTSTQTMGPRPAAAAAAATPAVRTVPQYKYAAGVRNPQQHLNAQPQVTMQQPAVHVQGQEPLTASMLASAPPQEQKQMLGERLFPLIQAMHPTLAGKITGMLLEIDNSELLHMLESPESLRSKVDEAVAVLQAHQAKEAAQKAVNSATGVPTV

SMILES: Nc1nnc(S)n1N=C1C(=O)Nc2ccccc21
- IC50 [1]: > 66 µM (inactive)
- IC50 (Large T antigen): 7.65 µM (active)
- IC50 [2]: > 66 µM (inactive)
- IC50 [3]: 4.84 µM (active)
- IC50 [4]: 57.4 µM (active)
- IC50 [5]: 30 µM (active)

SMILES: Oc1ccc(/C=N/Nc2ccnc3cc(Cl)ccc23)c(O)c1
- IC50 [6]: 6.73 µM (active)

SMILES: C[C@H]1CN(C2=C(Cl)C(=O)N(c3ccnc(Cl)c3)C2=O)CCN1
- IC50 [7]: > 50 µM (inconclusive)

SMILES: CC(=O)NNC(=O)c1sc(=S)n2c1[nH]c(=O)c1sccc12
- IC50 [3]: > 50 µM (not active)
- IC50 [5]: > 50 µM (not active)
- IC50 (Aminopeptidase N): 11.6 µM (active)

SMILES: COc1ccccc1/C=C1/SC(=O)N(CCC(=O)Nc2ccc(S(=O)(=O)Nc3nccs3)cc2)C1=O
- IC50 [6]: 2.69 µM (active)

SMILES: COc1ccc(N2CCN(C3=C(Cl)C(=O)N(c4cccc(OC)c4)C3=O)CC2)cc1
- IC50 [7]: > 50 µM (inconclusive)

SMILES: CCCOc1ccc(Cc2nn3c(=O)/c(=C/c4ccco4)sc3nc2=O)cc1
- IC50 [6]: 8.96 µM (not active)

SMILES: O=C(NCCO)c1cc(-c2ccc(F)cc2F)n[nH]1
- IC50 [7]: > 10 µM (inconclusive)

SMILES: Cc1[nH]n(-c2ccccc2)c(=O)c1/C=C1/C(=O)NN(c2ccc(F)c(Cl)c2)C1=O
- IC50 [6]: 5.78 µM (active)
- AC50 [8]: 4.54 µM (active)
- EC50 (Protein RecA): 12 µM (active)
- EC50 (Streptococcus): 7.24 µM (active)
- EC50 [9]: 4.06 µM (active)
- EC50 [10]: 5.31 µM (active)
